Assay results from US20260070906A1, “IMIDAZO[4,5-C]PYRIDINE COMPOUNDS FOR THE TREATMENT OF CANCER” (Hoffmann-La Roche Inc., priority 2023, published 2026).

Experiments:
human TLR7 = molecular target: T1, human TLR7 (Homo sapiens, UniProt Q9NYK1); experiment: HEK293-Blue-hTLR7 cells assay (NF-κB SEAP reporter); format: cell-based; conditions: 20 hrs incubation, agonism
T1 construct: host or cells: HEK293-Blue-hTLR7 (HEK293)
T1 sequence (Q9NYK1 27-1049): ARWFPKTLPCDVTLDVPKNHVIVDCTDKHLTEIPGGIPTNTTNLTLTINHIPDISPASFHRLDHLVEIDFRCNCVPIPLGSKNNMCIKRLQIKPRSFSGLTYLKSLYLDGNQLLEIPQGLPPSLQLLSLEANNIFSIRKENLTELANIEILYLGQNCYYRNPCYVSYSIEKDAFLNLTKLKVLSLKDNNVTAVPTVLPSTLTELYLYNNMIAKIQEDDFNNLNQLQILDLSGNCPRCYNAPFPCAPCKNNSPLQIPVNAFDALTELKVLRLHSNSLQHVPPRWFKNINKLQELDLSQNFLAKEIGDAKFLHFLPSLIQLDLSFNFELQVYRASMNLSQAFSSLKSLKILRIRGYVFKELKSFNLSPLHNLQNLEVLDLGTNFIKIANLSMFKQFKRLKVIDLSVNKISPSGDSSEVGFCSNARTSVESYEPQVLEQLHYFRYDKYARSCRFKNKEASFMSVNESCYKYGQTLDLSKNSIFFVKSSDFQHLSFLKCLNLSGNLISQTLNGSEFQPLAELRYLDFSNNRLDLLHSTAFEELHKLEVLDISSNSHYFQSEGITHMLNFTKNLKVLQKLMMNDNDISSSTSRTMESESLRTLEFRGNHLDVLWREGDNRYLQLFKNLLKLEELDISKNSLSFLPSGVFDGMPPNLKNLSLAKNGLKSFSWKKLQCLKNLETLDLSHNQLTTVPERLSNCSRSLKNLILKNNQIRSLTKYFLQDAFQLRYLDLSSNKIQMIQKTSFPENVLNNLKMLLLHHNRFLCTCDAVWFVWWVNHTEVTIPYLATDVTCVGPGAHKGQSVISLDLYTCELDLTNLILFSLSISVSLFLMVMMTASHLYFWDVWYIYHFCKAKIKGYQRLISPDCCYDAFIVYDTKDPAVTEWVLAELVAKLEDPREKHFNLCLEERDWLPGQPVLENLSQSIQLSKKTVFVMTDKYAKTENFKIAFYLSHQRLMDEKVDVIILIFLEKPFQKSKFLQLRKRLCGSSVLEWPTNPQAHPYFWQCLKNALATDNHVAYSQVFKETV
From the text: A stable HEK293-Blue-hTLR7 cell line was purchased from InvivoGen (Cat. #: hkb-htlr7, San Diego, California, USA). These cells were designed for studying the stimulation of human TLR7 by monitoring the activation of NF-κB. A SEAP (secreted embryonic alkaline phosphatase) reporter gene was placed under the control of the IFN-β minimal promoter fused to five NF-κB and AP-1-binding sites. The SEAP was induced by activating NF-κB and AP-1 via stimulating HEK-Blue hTLR7 cells with TLR7 ligands. Therefore the reporter expression was regulated by the NF-κB promoter upon stimulation of human TLR7 for 20 hrs. The cell culture supernatant SEAP reporter activity was determined using QUANTI-Blue™ kit (Cat. #: rep-qbl, Invivogen, San Diego, Ca, USA) at a wavelength of 650 nm, a detection medium that turns purple or blue in the presence of alkaline phosphatase.
HEK293-Blue-hTLR7 cells were incubated at a density of 250,000˜450,000 cells/mL in a volume of 180 μL in a 96-well plate in Dulbecco's Modified Eagle's medium (DMEM) containing 4.5 g/L glucose, 100 U/mL penicillin, 100 μg/mL streptomycin, 100 μg/mL Normocin, 1% (V/V) GlutaMAX™, 10% (V/V) heat-inactivated fetal bovine serum for 24 hrs. Then the HEK293-Blue-hTLR-7 cells were incubated with addition of 20 μL test compound in a serial dilution in the presence of final DMSO at 1% and perform incubation under 37° C. in a CO2 incubator for 20 hrs. Then 20 μL of the supernatant from each well was incubated with 180 μL Quanti-blue substrate solution at 37° C. for 1 hours and the absorbance was read at 620-655 nm using a spectrophotometer. The signalling pathway that TLR7 activation leads to downstream NF-κB activation has been widely accepted, and therefore similar reporter assay was also widely used for evaluating TLR7 agonist (Tsuneyasu Kaisho and Takashi Tanaka, Trends in Immunology, Volume 29, Issue 7, July 2008, […]; Hiroaki Hemmi et al, Nature Immunology 3, 196-200 (2002)).

human TLR8 = molecular target: T2, human TLR8 (Homo sapiens, UniProt Q9NR97); experiment: HEK293-Blue-hTLR8 cells assay (NF-κB SEAP reporter); format: cell-based; conditions: 20 hours incubation, agonism
T2 construct: host or cells: HEK293-Blue-hTLR8 (HEK293)
T2 sequence (Q9NR97 27-1041): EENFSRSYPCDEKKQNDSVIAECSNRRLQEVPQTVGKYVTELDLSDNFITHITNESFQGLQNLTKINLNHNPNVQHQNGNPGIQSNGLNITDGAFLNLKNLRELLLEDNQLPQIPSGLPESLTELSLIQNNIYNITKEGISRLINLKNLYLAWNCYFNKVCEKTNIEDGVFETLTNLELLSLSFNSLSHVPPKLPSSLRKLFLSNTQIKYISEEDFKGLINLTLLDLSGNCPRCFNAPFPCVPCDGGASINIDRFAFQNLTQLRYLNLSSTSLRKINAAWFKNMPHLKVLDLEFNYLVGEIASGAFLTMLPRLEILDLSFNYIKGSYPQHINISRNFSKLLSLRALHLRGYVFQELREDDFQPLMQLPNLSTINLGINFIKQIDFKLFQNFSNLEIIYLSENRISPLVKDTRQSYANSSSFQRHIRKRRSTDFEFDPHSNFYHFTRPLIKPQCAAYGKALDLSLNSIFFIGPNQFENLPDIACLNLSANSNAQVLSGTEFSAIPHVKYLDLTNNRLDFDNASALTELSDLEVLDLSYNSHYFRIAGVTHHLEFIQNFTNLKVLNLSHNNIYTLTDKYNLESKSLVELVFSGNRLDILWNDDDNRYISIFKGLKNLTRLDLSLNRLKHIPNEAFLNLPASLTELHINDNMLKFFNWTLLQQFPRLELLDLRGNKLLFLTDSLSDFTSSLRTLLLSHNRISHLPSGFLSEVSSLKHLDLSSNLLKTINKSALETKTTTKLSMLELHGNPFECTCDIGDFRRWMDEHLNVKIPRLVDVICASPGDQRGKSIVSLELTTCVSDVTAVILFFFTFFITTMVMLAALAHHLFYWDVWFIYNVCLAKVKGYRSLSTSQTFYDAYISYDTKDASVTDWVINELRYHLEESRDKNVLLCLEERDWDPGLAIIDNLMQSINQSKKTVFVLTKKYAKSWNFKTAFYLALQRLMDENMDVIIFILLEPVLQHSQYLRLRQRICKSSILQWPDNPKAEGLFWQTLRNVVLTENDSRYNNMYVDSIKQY
From the text: A stable HEK293-Blue-hTLR8 cell line was purchased from InvivoGen (Cat. #: hkb-htlr8, San Diego, California, USA). These cells were designed for studying the stimulation of human TLR8 by monitoring the activation of NF-κB. A SEAP (secreted embryonic alkaline phosphatase) reporter gene was placed under the control of the IFN-β minimal promoter fused to five NF-κB and AP-1-binding sites. The SEAP was induced by activating NF-κB and AP-1 via stimulating HEK-Blue hTLR8 cells with TLR8 ligands. Therefore the reporter expression was regulated by the NF-κB promoter upon stimulation of human TLR8. The cell culture supernatant SEAP reporter activity was determined using QUANTI-Blue™ kit (Cat. #: rep-qbl, Invivogen, San Diego, Ca, USA) at a wavelength of 650 nm, a detection medium that turns purple to blue in the presence of alkaline phosphatase.
HEK293-Blue-hTLR8 cells were incubated at a density of 250,000-450,000 cells/mL in a volume of 180 μL in a 96-well plate in Dulbecco's Modified Eagle's medium (DMEM) containing 4.5 g/L glucose, 100 U/mL penicillin, 100 μg/mL streptomycin, 100 μg/mL Normocin, 1% (V/V) GlutaMAX™, 10% (v/v) heat-inactivated fetal bovine serum for 24 hours. Then the HEK293-Blue-hTLR8 cells were incubated with addition of 20 μL test compound in a serial dilution in the presence of final DMSO at 1% and perform incubation under 37° C. in a CO2 incubator for 20 hours. Then 20 μL of the supernatant from each well was incubated with 180 μL Quanti-blue substrate solution at 37° C. for 1 hours and the absorbance was read at 620-655 nm using a spectrophotometer. The signalling pathway that TLR8 activation leads to downstream NF-κB activation has been widely accepted, and therefore similar reporter assay was also widely used for evaluating TLR8 agonist.

SMILES | EC50 (human TLR7) | EC50 (human TLR8)
CCOCc1nc2c(N)nc(C)c(Sc3cc4c(cc3O)CN(C)CC4)c2[nH]1 [Example 32, 6-[[4-amino-2-(ethoxymethyl)-6-methyl-1H-imidazo[4,5-c]pyridin-7-yl]sulfanyl]-2-methyl-3,4-dihydro-1H-isoquinolin-7-ol] | 21 nM | 54 nM
CCOCc1nc2c(N)nc(C)c(Sc3ccc(CN4CCN(C)CC4)c(N)c3)c2[nH]1 [Example 28, 7-[3-amino-4-[(4-methylpiperazin-1-yl)methyl]phenyl]sulfanyl-2-(ethoxymethyl)-6-methyl-1H-imidazo[4,5-c]pyridin-4-amine] | 10 nM | 44 nM
CCOCc1nc2c(N)nc(C)c(Sc3ccc(CN4CCN(C)CC4)cc3N)c2[nH]1 [Example 27, 7-[2-amino-4-[(4-methylpiperazin-1-yl)methyl]phenyl]sulfanyl-2-(ethoxymethyl)-6-methyl-1H-imidazo[4,5-c]pyridin-4-amine] | 39 nM | 52 nM
CCOCc1nc2c(N)nc(C)c(Sc3ccc(CN(C)C)c(O)c3)c2n1C [Example 12, 5-[4-amino-2-(ethoxymethyl)-1,6-dimethyl-imidazo[4,5-c]pyridin-7-yl]sulfanyl-2-[(dimethylamino)methyl]phenol] | 10 nM | 3 nM
CCOCc1nc2c(N)nc(C)c(Sc3ccc(CN(C)C)cc3)c2n1C [Example 7, 7-[4-[(dimethylamino)methyl]phenyl]sulfanyl-2-(ethoxymethyl)-1,6-dimethyl-imidazo[4,5-c]pyridin-4-amine] | 27 nM | 26 nM
CCCCc1nc2c(N)nc(C)c(Sc3ccc(CN(C)C)cc3O)c2[nH]1 [Example 21, 2-[(4-amino-2-butyl-6-methyl-1H-imidazo[4,5-c]pyridin-7-yl)sulfanyl]-5-[(dimethylamino)methyl]phenol] | 14 nM | 43 nM
CCOCc1nc2c(N)nc(C)c(Sc3ccc(CN4CCCC4)cc3N)c2[nH]1 [Example 26, 7-[2-amino-4-(pyrrolidin-1-ylmethyl)phenyl]sulfanyl-2-(ethoxymethyl)-6-methyl-1H-imidazo[4,5-c]pyridin-4-amine] | 21 nM | 15 nM
CCOCc1nc2c(N)nc(C)c(Sc3ccc(NCCN(C)C)nc3)c2[nH]1 [Example 30, N-[5-[[4-amino-2-(ethoxymethyl)-6-methyl-1H-imidazo[4,5-c]pyridin-7-yl]sulfanyl]-2-pyridyl]-N′,N′-dimethyl-ethane-1,2-diamine] | 13 nM | 11 nM

The remaining lines, values ahead:

EC50 (human TLR7) | EC50 (human TLR8) | SMILES
25 nM | 82 nM | CCOCc1nc2c(N)nc(C)c(Sc3cc(C)c(CN(C)C)cc3O)c2[nH]1 [Example 23, 2-[[4-amino-2-(ethoxymethyl)-6-methyl-1H-imidazo[4,5-c]pyridin-7-yl]sulfanyl]-5-[(dimethylamino)methyl]-4-methyl-phenol]
12 nM | 19 nM | CCOCc1nc2c(N)nc(C)c(SCCc3ccc(CN(C)C)c(O)c3)c2[nH]1 [Example 13, 5-[2-[[4-amino-2-(ethoxymethyl)-6-methyl-LH-imidazo[4,5-c]pyridin-7-yl]sulfanyl]ethyl]-2-[(dimethylamino)methyl]phenol]
9 nM | 19 nM | CCOCc1nc2c(N)nc(C)c(Sc3ccc(CN(C)C)c4cc[nH]c34)c2[nH]1 [Example 18, 7-[[4-[(dimethylamino)methyl]-1H-indol-7-yl]sulfanyl]-2-(ethoxymethyl)-6-methyl-1H-imidazo[4,5-c]pyridin-4-amine]
24 nM | 56 nM | CCOCc1nc2c(N)nc(C)c(Sc3ccc(CN(CC)CC)cc3O)c2[nH]1 [Example 17, 2-[[4-amino-2-(ethoxymethyl)-6-methyl-1H-imidazo[4,5-c]pyridin-7-yl]sulfanyl]-5-(diethylaminomethyl)phenol]
27 nM | 14 nM | CCOCc1nc2c(N)nc(C)c(Sc3ccc(CN(C)C)cc3)c2[nH]1 [Example 1, 7-[4-[(dimethylamino)methyl]phenyl]sulfanyl-2-(ethoxymethyl)-6-methyl-1H-imidazo[4,5-c]pyridin-4-amine]
